Results taken from patent US4044043A, “Derivatives of 9-oxo-13-trans-prostenoic acid esters” (American Cyanamid Company, priority 1975, dated 1977).
Converted amounts (≈) assume the structure as drawn. Like-named read-outs stand apart in the source and are kept apart here.

Key:
[1] = test system: Mycobacterium smegmatis ATCC 606; assay: agar-dilution streak-plate antimicrobial assay; type: cell-based; settings: Mycolicibacterium smegmatis, ATCC606, read-out: Minimal inhibitory conc. (6)
Outline: (§1)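 Complete absence of visible growth on the streak defines the MIC, given in µg/ml. Each compound, made up at 2.5 mg/ml and diluted two-fold, is incorporated 1:10 into organism-appropriate nutrient agar before loop inoculation and incubation.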

[2] = test system: Streptococcus pyogenes C 203; assay: agar-dilution streak-plate antimicrobial assay; type: cell-based; settings: C203, read-out: Minimal inhibitory conc. (8)
Outline: as §1

[3] = test system: gastric acid secretion; assay: Inhibition of Gastric Acid Secretion (Pylorous-Ligated Rat), Shay rat procedure; type: in vivo, rats (male, CFE strain); settings: 50 mg./kg. intraduodenal, read-out: % Inhibition of Control Gastric Acid Secretion
Outline: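 Male CFE rats were fasted 48 h, then pylorus-ligated under ether. Gastric contents were titrated with 0.02N or 0.04N NaOH to pH 8.4 for acid output, and ≥20% inhibition counted as active.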

[4] = test system: diastolic blood pressure; assay: Prostaglandin-like hypotensive activity in anesthetized rats (minimal dose for about 10 mm. decrease in diastolic blood pressure); type: in vivo, Male Wistar strain rats; settings: Rattus norvegicus; intravenous; decrease of about 10 mm. in diastolic blood pressure
Outline: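 Male Wistar rats (~250 g), pentobarbital 30 mg./kg. i.v. and hexamethonium 2 mg./kg. i.v., iliac artery cannulated for blood pressure. Compounds in saline-Tween 80 given i.v. at 0.1–10.0 mg./kg.; value is the minimal dose giving ~10 mm. drop in diastolic pressure.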

[5] = test system: Trichophyton tonsurans NIH 662; assay: agar-dilution streak-plate antimicrobial assay; type: cell-based; settings: NIH662, read-out: Minimal inhibitory conc. (3)
Outline: as §1

[6] = test system: Trichophyton rubrum E 97; assay: agar-dilution streak-plate antimicrobial assay; type: cell-based; settings: E97, read-out: Minimal inhibitory conc. (5)
Outline: as §1

[7] = test system: Trichophyton mentagrophytes E 11; assay: agar-dilution streak-plate antimicrobial assay; type: cell-based; settings: E11, read-out: Minimal inhibitory conc. (4)
Outline: as §1

[8] = test system: dl-PGE1-induced contraction of gerbil colon; assay: Inhibition of dl-PGE1-Induced Contraction of Gerbil Colon (prostaglandin antagonist action); type: cell-based, gerbils (Meriones unguiculatus); settings: Meriones unguiculatus, 1 min; sub-maximal challenge, 20 ng./ml. dl-PGE1; 50% inhibition of maximum response; read-out: ID50 vs. 20 ng. of PGE1/ml.
Outline: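 Ascending colon from male gerbils, held in De Jalon's solution at 37 °C under 95% O2/5% CO2 with 0.5 g resting tension, contraction recorded isometrically. 1 min compound exposure, then 1 min dl-PGE1 at 200 ng/ml (maximal) or 20 ng/ml (sub-maximal). Approximate ID50 taken from a concentration series against the preceding agonist-only cycle.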

[9] = test system: gastric acid secretion; assay: Inhibition of basal Gastric Acid Secretion (Acute Gastric Fistula Rat); type: in vivo, Female Sprague-Dawley rats; settings: 2 h, 10 mg./kg. intraduodenal, B: 120 minute collection
Procedure: Inhibition of basal gastric acid secretion was determined in the acute gastric fistula rat as follows. Female Sprague-Dawley rats (Charles River Laboratories) weighing 140-160 grams are fasted in individual cages for 18-24 hours. The rats are then lightly anesthetized with ether and their front teeth extracted to avoid destruction of the plastic cannula. A midline incision is then made and the stomach and duodenum exposed. A flanged polyvinyl tube is inserted into the fundic portion of the stomach and secured with a purse string suture line using 4-0 Mersilene. The rat is then dosed by injection of the compound into the duodenum (1.0 ml. per 100 gram body weight). After dosing, the abdominal wall and skin are closed using metal wound clips. The rat is replaced in a cage containing a longitudinal slit to allow the polyvinyl tube to hang freely. An 8 ml. plastic collecting tube is attached to the flanged cannula and hangs freely below the cage. The first 30 minute sample is discarded designating this time as zero. The collecting tube is attached again and samples removed at the end of 60 and 120 minutes. Those samples are referred to as "A" and "B" in the table. The hourly samples are then transferred to a 15 ml. centrifuge tube and centrifuged for 5-10 minutes. Total and sediment volume are then recorded with the supernatant volume being used as volume of secretion. A 1 ml. or less aliquot is then removed and placed in a 50 ml. beaker containing 10 ml. of distilled water. This sample is then titrated using 0.01N NaOH to pH 7.0 using a Beckman zeromatic pH meter. Volume, titratable acidity (meq/L) and total acid output (μ eq/hour) are recorded. Percent inhibition is determined by comparison with the appropriate control. Groups of three rats were used. All compounds are administered in vehicle (0.5% methocel, 0.4% Tween 80, saline) at a constant volume of 1 ml./100 gram rat. Samples were sonicated with care to prevent overheating.

[10] = test system: bronchospasms elicited by acetylcholine; assay: Bronchodilator Activity (Konzett Assay) against acetylcholine; type: in vivo, guinea pigs; settings: Cavia porcellus; three logarithmic cumulative intravenous doses
Procedure: (§2) Bronchodilator activity was determined in guinea pigs against bronchospasms elicited by intravenous injections of 5-hydroxytryptamine, histamine or acetylcholine by the Konzett procedure. [See J. Lulling, P. Lievens, F. El Sayed and J. Prignot, Arzeneimittel-Forschung, 18, 995 (1968)]. In Table IIIC which follows bronchodilator activity for representative compounds of this invention against one or more of the three spasmogenic agents is expressed as an ED50 determined from the results obtained with three logarithmic cumulative intravenous doses.

[11] = test system: bronchospasms elicited by 5-hydroxytryptamine; assay: Bronchodilator Activity (Konzett Assay) against 5-hydroxytryptamine; type: in vivo, guinea pigs; settings: Cavia porcellus; three logarithmic cumulative intravenous doses
Procedure: as §2

[12] = test system: bronchospasms elicited by histamine; assay: Bronchodilator Activity (Konzett Assay) against histamine; type: in vivo, guinea pigs; settings: Cavia porcellus; three logarithmic cumulative intravenous doses
Procedure: as §2

[13] = test system: Microsporum gypseum ATCC 14683; assay: agar-dilution streak-plate antimicrobial assay; type: cell-based; settings: Nannizzia gypsea, ATCC14683, read-out: Minimal inhibitory conc. (2)
Outline: as §1

[14] = test system: Microsporum canis ATCC 10214; assay: agar-dilution streak-plate antimicrobial assay; type: cell-based; settings: ATCC10214, read-out: Minimal inhibitory conc. (1)
Outline: as §1

[15] = read-out: % Inhibition Total Acid Output
[16] = read-out: % Inhibition Total Acidity

Row | Compound | MIC [1] | MIC [2] | MIC [5] | MIC [6] | MIC [7] | IC50 [8] | MIC [13] | MIC [14] | inhibition in vivo at 50 mg/kg [3] | minimal effective dose [4] | inhibition in vivo at 10 mg/kg [9, 15] | inhibition in vivo at 10 mg/kg [9, 16] | ED50 [10] | ED50 [11] | ED50 [12]
1 | CCOCCC/C=C/[C@@H]1CCC(=O)[C@H]1CCCCCCC(=O)O (relative stereo) [18-oxa-9-oxo-13-trans-prostenoic acid] |  |  | 250 µg/mL (≈ 771 µM) |  | 250 µg/mL (≈ 771 µM) | 15 to 25 µg/mL (≈ 46.2 to 77.1 µM) |  |  |  | 2 mg/kg | 56% | 43% | > 10 mg/kg | 1.92 mg/kg | 1.5 mg/kg
2 | CCCCCCC=CC1CCC(C)(O)C1CCCCCCC(=O)O (stereo not drawn) [9-Hydroxy-9-methyl-13-trans-prostenoic acid] |  |  |  |  |  | 2 to 5 µg/mL (≈ 5.91 to 14.8 µM) |  |  |  |  | 31% | 16% | 4.32 mg/kg | 0.756 mg/kg | 1.18 mg/kg
3 | CCCCCCCCCC/C=C/[C@H]1CCC(=O)[C@@H]1CCCCCCC(=O)O (relative stereo) [20-butyl-9-oxo-13-trans-prostenoic acid] | 10 µg/mL (≈ 26.4 µM) | 10 µg/mL (≈ 26.4 µM) | 250 µg/mL (≈ 660 µM) |  |  |  |  |  |  |  |  |  | > 10 mg/kg | > 10 mg/kg | 2.4 mg/kg
4 | CCOC(=O)CCCCCC[C@H]1C(=O)CC[C@@H]1/C=C/C(C)C (relative stereo) [ethyl 15-methyl-9-oxo-17,18,19,20-tetranor-13-trans-prostenoate] | 62 µg/mL (≈ 201 µM) |  | 250 µg/mL (≈ 810 µM) | 250 µg/mL (≈ 810 µM) | 250 µg/mL (≈ 810 µM) |  | 250 µg/mL (≈ 810 µM) | 250 µg/mL (≈ 810 µM) |  |  |  |  |  |  | 
5 | O=C(O)CCCCCCC1C(O)CCC1C=CCCCCl (stereo not drawn) [9-hydroxy-20-chloro-17,18,19-trinor-13-trans-prostenoic acid] |  | 62 µg/mL (≈ 196 µM) | 250 µg/mL (≈ 789 µM) |  | 250 µg/mL (≈ 789 µM) |  | 250 µg/mL (≈ 789 µM) |  |  | 2 mg/kg |  |  | > 10 mg/kg | 17.9 mg/kg | > 10 mg/kg
6 | CCCCCCC=CC1CCC(=O)C1CCCCCC(C(=O)O)c1ccccc1 (stereo not drawn) [9-oxo-2-phenyl-13-trans-prostenoic acid] |  |  |  |  |  | 5 to 7 µg/mL (≈ 12.5 to 17.6 µM) |  |  |  |  | 44% | 26% |  |  | 

More lines, main results first:

Row | MIC [1] | MIC [2] | MIC [5] | MIC [6] | MIC [7] | IC50 [8] | MIC [13] | MIC [14] | Compound | inhibition in vivo at 50 mg/kg [3] | minimal effective dose [4] | inhibition in vivo at 10 mg/kg [9, 15] | inhibition in vivo at 10 mg/kg [9, 16] | ED50 [10] | ED50 [11] | ED50 [12]
7 | 250 µg/mL (≈ 660 µM) | 250 µg/mL (≈ 660 µM) |  |  |  |  |  |  | CCCCCC/C=C/[C@@H]1CCC(=O)[C@H]1CCCCCCC(=O)OCCCC (relative stereo) [n-butyl 9-oxo-13-trans-prostenoate] | 20% | 2 mg/kg |  |  |  |  | 
8 | 250 µg/mL (≈ 650 µM) |  | 250 µg/mL (≈ 650 µM) | 250 µg/mL (≈ 650 µM) | 250 µg/mL (≈ 650 µM) |  |  |  | CCOC(=O)CCCCCC[C@H]1C(=O)CC[C@@H]1/C=C/CCC[S+]([O-])CC (stereo partly drawn) [ethyl 9-oxo-18-oxythia-13-trans-prostenoate] |  | 2 mg/kg |  |  |  |  | 
9 | 250 µg/mL (≈ 649 µM) |  | 250 µg/mL (≈ 649 µM) | 250 µg/mL (≈ 649 µM) | 250 µg/mL (≈ 649 µM) |  |  |  | CCOC(=O)CCCCCC[C@H]1C(=O)CC[C@@H]1/C=C/CCCCCCCl (relative stereo) [ethyl 20-chloro-9-oxo-13-trans-prostenoate] |  | 0.5 mg/kg |  |  |  |  | 
